ChEMBL document CHEMBL5335776, “Development, validation, and evaluation of a deep learning model to screen cyclin-dependent kinase 12 inhibitors in cancers” (Eur J Med Chem, 2023)

How the values were obtained:
CDK12/Cyclin K = CDK12/Cyclin K (Homo sapiens, UniProt Q9NYV4); assay: Inhibition of CDK12/Cyclin K (unknown origin) preincubated for 10 mins followed by substrate and ATP addition measured after 200 mins by ADP-Glo luminescence assay; format: protein-complex assay
[1] = target: Cyclin-dependent kinase 13/Cyclin-K (Homo sapiens, UniProt Q14004); assay: Inhibition of CDK13/Cyclin K (unknown origin) preincubated for 10 mins followed by substrate and ATP addition measured after 200 mins by ADP-Glo luminescence assay; format: protein-complex assay
Chain of Cyclin-dependent kinase 13/Cyclin-K (Q14004 whole entry): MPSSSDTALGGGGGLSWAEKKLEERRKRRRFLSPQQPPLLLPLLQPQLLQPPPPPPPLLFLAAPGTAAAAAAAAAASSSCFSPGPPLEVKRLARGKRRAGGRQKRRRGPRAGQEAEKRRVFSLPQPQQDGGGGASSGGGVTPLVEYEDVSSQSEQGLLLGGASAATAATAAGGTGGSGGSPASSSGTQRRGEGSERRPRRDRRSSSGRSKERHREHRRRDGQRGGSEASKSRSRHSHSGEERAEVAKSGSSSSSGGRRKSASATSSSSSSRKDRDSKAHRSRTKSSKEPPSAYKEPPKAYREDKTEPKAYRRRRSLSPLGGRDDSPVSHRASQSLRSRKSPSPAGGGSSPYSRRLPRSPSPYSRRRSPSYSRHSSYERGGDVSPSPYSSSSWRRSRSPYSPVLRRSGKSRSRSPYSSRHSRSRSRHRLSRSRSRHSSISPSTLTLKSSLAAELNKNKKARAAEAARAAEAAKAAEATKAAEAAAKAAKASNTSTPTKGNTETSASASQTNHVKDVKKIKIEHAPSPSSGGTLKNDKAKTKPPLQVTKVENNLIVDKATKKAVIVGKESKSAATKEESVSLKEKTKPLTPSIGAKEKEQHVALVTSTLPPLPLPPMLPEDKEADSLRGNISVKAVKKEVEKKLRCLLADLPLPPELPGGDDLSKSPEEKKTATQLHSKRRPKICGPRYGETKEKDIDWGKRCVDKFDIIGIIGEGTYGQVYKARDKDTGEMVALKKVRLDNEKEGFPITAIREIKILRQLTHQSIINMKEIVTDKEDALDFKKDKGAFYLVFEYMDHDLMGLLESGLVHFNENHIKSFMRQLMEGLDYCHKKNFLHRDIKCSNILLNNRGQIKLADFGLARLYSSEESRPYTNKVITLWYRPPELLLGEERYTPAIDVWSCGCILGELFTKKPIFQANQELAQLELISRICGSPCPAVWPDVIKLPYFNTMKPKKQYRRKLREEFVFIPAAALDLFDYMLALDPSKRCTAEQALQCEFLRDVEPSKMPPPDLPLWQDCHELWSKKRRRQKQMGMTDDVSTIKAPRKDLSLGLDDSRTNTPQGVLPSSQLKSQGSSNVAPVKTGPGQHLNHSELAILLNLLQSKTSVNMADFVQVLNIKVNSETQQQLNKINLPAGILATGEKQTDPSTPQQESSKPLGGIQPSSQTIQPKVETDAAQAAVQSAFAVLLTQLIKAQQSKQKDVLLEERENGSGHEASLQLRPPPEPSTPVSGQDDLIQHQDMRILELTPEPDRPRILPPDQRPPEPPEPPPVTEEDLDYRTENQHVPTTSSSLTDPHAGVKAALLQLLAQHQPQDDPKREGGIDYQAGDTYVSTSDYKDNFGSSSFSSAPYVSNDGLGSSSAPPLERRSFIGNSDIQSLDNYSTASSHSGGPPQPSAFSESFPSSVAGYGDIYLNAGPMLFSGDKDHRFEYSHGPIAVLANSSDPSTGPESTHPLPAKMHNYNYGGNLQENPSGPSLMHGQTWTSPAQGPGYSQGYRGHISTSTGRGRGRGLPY
Chain of Cyclin-dependent kinase 13/Cyclin-K (O75909 whole entry, further chain): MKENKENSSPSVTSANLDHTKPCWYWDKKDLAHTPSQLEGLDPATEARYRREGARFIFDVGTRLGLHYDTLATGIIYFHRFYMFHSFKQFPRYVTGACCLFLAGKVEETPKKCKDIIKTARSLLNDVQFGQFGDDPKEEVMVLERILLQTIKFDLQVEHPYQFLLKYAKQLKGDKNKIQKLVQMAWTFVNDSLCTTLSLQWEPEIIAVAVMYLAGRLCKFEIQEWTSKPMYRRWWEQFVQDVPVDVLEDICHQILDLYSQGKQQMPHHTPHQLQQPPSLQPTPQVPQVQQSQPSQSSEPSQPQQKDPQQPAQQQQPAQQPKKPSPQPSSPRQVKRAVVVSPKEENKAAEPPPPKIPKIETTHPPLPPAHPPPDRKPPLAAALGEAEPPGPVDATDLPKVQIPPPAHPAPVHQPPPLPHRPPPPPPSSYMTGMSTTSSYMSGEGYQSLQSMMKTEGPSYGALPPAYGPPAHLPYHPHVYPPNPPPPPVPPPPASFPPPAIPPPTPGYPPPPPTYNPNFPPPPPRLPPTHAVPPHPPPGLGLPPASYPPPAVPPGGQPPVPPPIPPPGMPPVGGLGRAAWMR

BT-474 = assay: Cytotoxicity against human BT-474 cells incubated for 48 hrs by CCK-8 reagent microplate reader assay; format: functional, cell-based; details: BT-474, 48 h
[2] = target: T1, CDK12/Cyclin K (Homo sapiens) (UniProt O75909+Q9NYV4); assay: Inhibition of CDK12/Cyclin K (unknown origin) at 10 uM preincubated for 10 mins followed by substrate and ATP addition measured after 200 mins by ADP-Glo luminescence assay relative to control; format: protein-complex assay; details: time 210.0 min
T1 sequence (O75909 whole entry, looked up): as the sequence (O75909 whole entry, further chain) above
T1 sequence (Q9NYV4 whole entry, looked up): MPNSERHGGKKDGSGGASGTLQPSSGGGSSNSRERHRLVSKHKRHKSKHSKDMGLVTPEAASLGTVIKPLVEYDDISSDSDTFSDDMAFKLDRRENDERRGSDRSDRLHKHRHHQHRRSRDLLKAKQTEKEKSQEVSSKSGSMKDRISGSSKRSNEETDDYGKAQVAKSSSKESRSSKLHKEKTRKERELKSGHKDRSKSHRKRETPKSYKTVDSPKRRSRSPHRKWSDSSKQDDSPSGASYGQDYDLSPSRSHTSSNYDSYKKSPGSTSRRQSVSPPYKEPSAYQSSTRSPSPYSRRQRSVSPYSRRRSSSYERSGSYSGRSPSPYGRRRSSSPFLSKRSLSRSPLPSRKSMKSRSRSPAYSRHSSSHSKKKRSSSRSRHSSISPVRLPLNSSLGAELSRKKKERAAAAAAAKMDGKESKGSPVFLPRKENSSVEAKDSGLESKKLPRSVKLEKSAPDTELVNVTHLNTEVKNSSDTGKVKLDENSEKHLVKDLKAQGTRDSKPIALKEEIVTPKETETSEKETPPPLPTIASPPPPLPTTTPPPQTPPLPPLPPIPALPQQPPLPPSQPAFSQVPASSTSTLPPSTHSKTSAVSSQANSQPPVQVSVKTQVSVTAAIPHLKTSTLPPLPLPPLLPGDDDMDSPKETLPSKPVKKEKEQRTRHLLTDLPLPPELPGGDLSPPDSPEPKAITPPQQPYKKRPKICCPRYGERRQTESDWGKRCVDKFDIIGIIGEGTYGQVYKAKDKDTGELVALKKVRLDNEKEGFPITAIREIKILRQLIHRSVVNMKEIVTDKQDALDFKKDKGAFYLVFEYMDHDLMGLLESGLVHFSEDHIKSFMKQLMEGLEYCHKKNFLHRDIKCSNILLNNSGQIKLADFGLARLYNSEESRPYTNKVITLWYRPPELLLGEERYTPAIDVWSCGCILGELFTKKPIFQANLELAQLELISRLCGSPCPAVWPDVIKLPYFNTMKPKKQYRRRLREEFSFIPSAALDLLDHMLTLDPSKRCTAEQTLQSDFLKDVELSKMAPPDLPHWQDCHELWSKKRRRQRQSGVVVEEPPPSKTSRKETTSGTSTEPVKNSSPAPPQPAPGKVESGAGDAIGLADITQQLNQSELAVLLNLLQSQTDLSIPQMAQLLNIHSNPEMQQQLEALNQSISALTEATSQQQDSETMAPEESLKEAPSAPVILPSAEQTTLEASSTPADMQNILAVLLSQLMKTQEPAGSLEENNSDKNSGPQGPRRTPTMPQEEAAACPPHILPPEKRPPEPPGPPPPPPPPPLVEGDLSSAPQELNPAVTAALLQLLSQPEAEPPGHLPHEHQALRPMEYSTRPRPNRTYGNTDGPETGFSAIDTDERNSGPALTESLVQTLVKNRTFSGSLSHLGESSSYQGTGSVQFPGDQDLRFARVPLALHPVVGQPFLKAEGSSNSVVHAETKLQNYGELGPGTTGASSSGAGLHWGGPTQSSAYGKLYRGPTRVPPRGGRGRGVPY

[3] = target: T1, CDK12/Cyclin K (Homo sapiens); assay: Inhibition of CDK12/Cyclin K (unknown origin) at 1 uM preincubated for 10 mins followed by substrate and ATP addition measured after 200 mins by ADP-Glo luminescence assay relative to control; format: protein-complex assay; details: time 210.0 min
[4] = target: T1, CDK12/Cyclin K (Homo sapiens); assay: Inhibition of CDK12/Cyclin K (unknown origin) at 0.1 uM preincubated for 10 mins followed by substrate and ATP addition measured after 200 mins by ADP-Glo luminescence assay relative to control; format: protein-complex assay; details: time 210.0 min

Chain of CDK12/Cyclin K (O75909 whole entry): as the sequence (O75909 whole entry, further chain) above
Chain of CDK12/Cyclin K (Q9NYV4 whole entry): as the sequence (Q9NYV4 whole entry, looked up) above

Row | IC50 (CDK12/Cyclin K) [µM] | IC50 [1] [µM] | inhibition [2] [%] | inhibition [3] [%] | inhibition [4] [%] | SMILES | IC50 (BT-474) [µM]
1 | 0.053 | 0.0215 | – | – | – | Cn1ncc(-c2nc(N[C@H]3CC[C@H](N)CC3)ncc2F)c1CC1CC1 | 11.3
2 | 0.152 | 0.04 | 33 | 96.7 | 98.7 | CN(C)C/C=C/C(=O)Nc1ccc(C(=O)N2CCC[C@@H](Nc3ncc(Cl)c(-c4c[nH]c5ccccc45)n3)C2)cc1 | –
3 | 0.425 | – | – | – | – | COc1cc(F)ccc1-c1cc(Nc2cc(C[S@@](C)(=N)=O)ccn2)ncc1F | 0.853
4 | 0.0744 | 0.0293 | – | – | – | C=CC(=O)Nc1cccc(Nc2cc(N3CCCC[C@H]3CCO)nc3c(CC)cnn23)c1 | 0.49
5 | 0.183 | 0.187 | – | – | – | CN1CCN(Cc2ccc(NC(=O)c3n[nH]cc3Nc3ncnc4[nH]ccc34)cc2)CC1 | 23.9
6 | – | – | – | – | – | Cc1cc(O)c(-c2ccc([C@@H](C)CN)cc2)c2c1[nH]c(=O)c1sccc12 | 6.26
7 | 0.26 | 0.154 | – | – | – | NCCCNc1ccc(Nc2nccc(Nc3cc(C4CC4)[nH]n3)n2)cc1 | 9.11
8 | 0.143 | 0.206 | – | – | – | Cn1cc(C2=C(c3cn(CCCSC(=N)N)c4ccccc34)C(=O)NC2=O)c2ccccc21 [BISINDOLYLMALEIMIDE IX] | –
9 | 0.749 | – | – | – | – | O=C1CC[C@@H](N2C(=O)c3cccc(OCCCCCOc4ccc(CC(=O)Nc5cc(C6CCC6)[nH]n5)cc4)c3C2=O)C(=O)N1 | 42.3
